Where a SMILES comes first, the peptide text is derived from it. [ ]: non-standard residue; d: D form. NMeF = CN[C@@H](Cc1ccccc1)C(=O)O; dNMeF = CN[C@H](Cc1ccccc1)C(=O)O; NMeL = CN[C@@H](CC(C)C)C(=O)O; dNMeL = CN[C@H](CC(C)C)C(=O)O; NMeA = CN[C@@H](C)C(=O)O; dNMeA = CN[C@H](C)C(=O)O; Sar = CNCC(=O)O
Key:
[1] = PAMPA
in vitro = conditions: PAMPA, PAMPA_Papp_Avg

Row | Compound | PAMPA_R1 [1] | PAMPA_R3 [1] | Papp (in vitro)
1 | CC(C)C[C@@H]1NC(=O)[C@@H]2CCCN2C(=O)[C@H]2CCCN2C(=O)[C@H](CC(C)C)NC(=O)[C@H](C)N(C)C(=O)[C@H]2CCCN2C(=O)[C@@H](CC(C)C)NC1=O [Design D7.6, DLEU DPRO *ALA LEU DPRO PRO LEU] (cyclo(L[dL][dP][NMeA]L[dP]P)) | 2.16e-06 cm/s | 6.12e-06 cm/s | 3.62 ×10⁻⁶ cm/s
2 | CC[C@H](C)[C@@H]1NC(=O)[C@H](Cc2ccccc2)N(C)C(=O)[C@H]2CCCN2C(=O)[C@H]([C@@H](C)CC)NC(=O)[C@H](C(C)C)NC(=O)[C@@H](C)NC(=O)[C@H]2CCCN2C1=O [Design D7.9, VAL ILE DPRO *PHE ILE DPRO DALA] (cyclo(I[dP][NMeF]I[dP][dA]V)) | 6.71e-06 cm/s | 6.53e-06 cm/s | 7.09 ×10⁻⁶ cm/s
3 | CC(C)C[C@@H]1C(=O)N[C@H](CC(C)C)C(=O)N2CCC[C@@H]2C(=O)N2CCC[C@H]2C(=O)N(C)[C@H](CC(C)C)C(=O)N[C@H](CC(C)C)C(=O)N2CCC[C@@H]2C(=O)N2CCC[C@H]2C(=O)N1C [Design D8.4, DPRO PRO *DLEU DLEU DPRO PRO *DLEU DLEU] (cyclo([dNMeL][dL][dP]P[dNMeL][dL][dP]P)) | 1.49E-07 | 1.12E-07 | 0.136 ×10⁻⁶ cm/s
4 | CC(C)C[C@@H]1NC(=O)[C@@H](CC(C)C)N(C)C(=O)[C@@H](CC(C)C)N(C)C(=O)[C@@H](CC(C)C)N(C)C(=O)[C@H](CC(C)C)NC(=O)[C@@H]2CCCN2C(=O)[C@H]2CCCN2C(=O)[C@H](Cc2ccccc2)NC1=O [Design D8.7, PHE DPRO PRO LEU *DLEU *DLEU *DLEU LEU] (cyclo(L[dNMeL][dNMeL][dNMeL]LF[dP]P)) | 1.94E-06 | 8.74E-07 | 1.27 ×10⁻⁶ cm/s
5 | CC[C@H](C)[C@@H]1NC(=O)[C@@H]2CCCN2C(=O)[C@H]2CCCN2C(=O)[C@@H](CC(C)C)NC(=O)[C@@H](CC(C)C)N(C)C(=O)[C@@H]2CCCN2C(=O)[C@H](Cc2ccccc2)N(C)C(=O)[C@@H](Cc2ccccc2)NC1=O [Design D8.14, PRO ILE DPHE*PHE PRO *DLEU DLEU DPRO] (cyclo(I[dF][NMeF]P[dNMeL][dL][dP]P)) | 1.14E-06 | 7.14E-07 | 0.971 ×10⁻⁶ cm/s
6 | CC[C@H](C)[C@@H]1NC(=O)[C@@H]2CCCN2C(=O)CN(C)C(=O)[C@@H](CC(C)C)NC(=O)[C@@H](CC(C)C)N(C)C(=O)[C@@H]2CCCN2C(=O)[C@H](Cc2ccccc2)N(C)C(=O)[C@@H](Cc2ccccc2)NC1=O [Design D8.15, PRO ILE DPHE*PHE PRO *DLEU DLEU *GLY] (cyclo(I[dF][NMeF]P[dNMeL][dL][Sar]P)) | 8.94E-07 | 9.27E-07 | 0.768 ×10⁻⁶ cm/s
7 | CC[C@H](C)[C@@H]1NC(=O)[C@@H](C(C)C)NC(=O)[C@H](CC(C)C)N(C)C(=O)[C@H]2CCCN2C(=O)[C@H]2CCCN2C(=O)[C@H](C(C)C)NC(=O)[C@@H](CC(C)C)NC(=O)[C@H]2CCCN2C1=O [Design D8.16, DPRO DLEU VAL DPRO DPRO *LEU DVAL ILE] (cyclo(I[dP][dL]V[dP][dP][NMeL][dV])) | 2.86E-06 | 1.69E-06 | 2.16 ×10⁻⁶ cm/s
8 | CC[C@H](C)[C@@H]1NC(=O)[C@@H](C)N(C)C(=O)[C@H]2CCCN2C(=O)[C@H]2CCCN2C(=O)[C@H](Cc2ccccc2)NC(=O)[C@@H](CC(C)C)NC(=O)[C@@H](CC(C)C)N(C)C(=O)[C@@H]2CCCN2C1=O [Design D8.17, PRO *DLEU DLEU PHE DPRO DPRO *DALA ILE] (cyclo(F[dP][dP][dNMeA]IP[dNMeL][dL])) | 5.94E-07 | 8.83E-07 | 0.72 ×10⁻⁶ cm/s
9 | CC[C@@H](C)[C@H]1NC(=O)[C@@H]2CCCN2C(=O)[C@@H](CC(C)C)N(C)C(=O)[C@@H](C(C)C)NC(=O)[C@@H]2CCCN2C(=O)[C@@H](CC(C)C)N(C)C(=O)[C@H](C)N(C)C(=O)[C@@H](C)NC1=O [Design D8.18, DILE DALA *ALA *DLEU PRO DVAL *DLEU PRO] (cyclo([NMeA][dNMeL]P[dV][dNMeL]P[dI][dA])) | 1.31E-06 | 9.35E-07 | 1.04 ×10⁻⁶ cm/s
10 | CC(C)C[C@H]1NC(=O)[C@H]2CCCN2C(=O)[C@H](CC(C)C)N(C)C(=O)[C@@H](C)N(C)C(=O)[C@@H](Cc2ccccc2)NC(=O)[C@@H](C(C)C)NC(=O)[C@H]2CCCN2C(=O)[C@@H](CC(C)C)NC1=O [Design D8.19, DPHE *DALA *LEU DPRO DLEU DLEU DPRO DVAL] (cyclo([NMeL][dP][dL][dL][dP][dV][dF][dNMeA])) | 3.45E-06 | 2.33E-06 | 2.88 ×10⁻⁶ cm/s
11 | CC(C)C[C@@H]1C(=O)N(C)[C@H](Cc2ccccc2)C(=O)N(C)[C@@H](CC(C)C)C(=O)N[C@H](C(C)C)C(=O)N[C@H](C)C(=O)N2CCC[C@@H]2C(=O)N2CCC[C@H]2C(=O)N[C@H](C)C(=O)N1C [Design D8.20, PRO DALA *DLEU *DPHE *LEU DVAL DALA DPRO] (cyclo([dA][dNMeL][dNMeF][NMeL][dV][dA][dP]P)) | 1.00E-06 | 1.46E-06 | 1.08 ×10⁻⁶ cm/s
12 | CC(C)C[C@@H]1C(=O)N[C@@H](C(C)C)C(=O)N[C@@H](C)C(=O)N2CCC[C@H]2C(=O)N2CCC[C@@H]2C(=O)N[C@@H](C(C)C)C(=O)N[C@@H](C)C(=O)N(C)[C@@H](CC(C)C)C(=O)N1C [Design D8.22, ALA PRO DPRO VAL ALA *LEU *DLEU VAL] (cyclo(A[NMeL][dNMeL]VAP[dP]V)) | 2.34E-07 | 1.57E-07 | 0.215 ×10⁻⁶ cm/s
13 | CC(C)C[C@@H]1C(=O)N(C)[C@H](CC(C)C)C(=O)N[C@H](CC(C)C)C(=O)N[C@@H](C(C)C)C(=O)N2CCC[C@@H]2C(=O)N2CCC[C@H]2C(=O)N[C@H](CC(C)C)C(=O)N[C@@H](C(C)C)C(=O)N1C [Design D8.23, DLEU VAL *DLEU *DLEU DLEU VAL DPRO PRO] (cyclo([dL]V[dNMeL][dNMeL][dL]V[dP]P)) | 1.18E-06 | 1.40E-06 | 1.28 ×10⁻⁶ cm/s
14 | CC(C)C[C@@H]1C(=O)N[C@H](C)C(=O)N(C)[C@H](CC(C)C)C(=O)N2CCC[C@@H]2C(=O)N[C@H](CC(C)C)C(=O)N[C@@H](C)C(=O)N[C@H](CC(C)C)C(=O)N2CCC[C@@H]2C(=O)N1C [Design D8.25, DLEU DPRO *DLEU DALA *DLEU DPRO DLEU ALA] (cyclo(A[dL][dP][dNMeL][dA][dNMeL][dP][dL])) | 7.42E-07 | 9.32E-07 | 0.824 ×10⁻⁶ cm/s
15 | CC[C@H](C)[C@@H]1NC(=O)[C@H](CC(C)C)N(C)C(=O)[C@H]2CCCN2C(=O)[C@H]2CCCN2C(=O)[C@H](Cc2ccccc2)NC(=O)[C@@H](CC(C)C)NC(=O)[C@H]2CCCN2C(=O)[C@@H]2CCCN2C1=O [Design D8.27, PHE DPRO DPRO *LEU ILE PRO DPRO DLEU] (cyclo(F[dP][dP][NMeL]IP[dP][dL])) | 2.88E-07 | 2.76E-07 | 0.282 ×10⁻⁶ cm/s
16 | CC[C@H](C)[C@@H]1NC(=O)[C@@H](CC(C)C)N(C)C(=O)[C@H](CC(C)C)N(C)C(=O)[C@H](C)NC(=O)[C@H]2CCCN2C(=O)[C@@H]2CCCN2C(=O)[C@@H]2CCCN2C(=O)[C@@H](C(C)C)NC1=O [Design D8.28, PRO DPRO ALA *LEU *DLEU ILE DVAL PRO] (cyclo(A[NMeL][dNMeL]I[dV]PP[dP])) | 1.45E-06 | 7.65E-07 | 1.14 ×10⁻⁶ cm/s
17 | CC(C)C[C@H]1NC(=O)[C@@H]2CCCN2C(=O)[C@@H](C(C)C)NC(=O)[C@@H](C)N(C)C(=O)[C@@H](C(C)C)NC(=O)[C@@H]2CCCN2C(=O)[C@@H](Cc2ccccc2)NC(=O)[C@H](CC(C)C)N(C)C(=O)[C@@H](C(C)C)NC1=O [Design D9.5, PRO DVAL *DALA DVAL PRO DLEU DVAL *LEU DPHE] (cyclo([NMeL][dF]P[dV][dNMeA][dV]P[dL][dV])) | 3.32E-06 | 4.42E-06 | 3.51 ×10⁻⁶ cm/s
18 | CC[C@H](C)[C@@H]1NC(=O)[C@H](Cc2ccccc2)N(C)C(=O)[C@H](CC(C)C)N(C)C(=O)[C@@H](C(C)C)NC(=O)[C@@H](C)NC(=O)[C@@H]2CCCN2C(=O)[C@@H](CC(C)C)NC(=O)[C@@H]2CCCN2C(=O)[C@H](C)NC1=O [Design D9.6, PRO DALA DVAL *LEU *PHE ILE ALA PRO DLEU] | 1.38E-06 | 1.96E-06 | 1.63 ×10⁻⁶ cm/s
19 | CC[C@@H](C)[C@H]1NC(=O)[C@H](CC(C)C)N(C)C(=O)[C@H]2CCCN2C(=O)[C@@H](Cc2ccccc2)N(C)C(=O)[C@@H](Cc2ccccc2)N(C)C(=O)[C@H](CC(C)C)N(C)C(=O)[C@@H](C(C)C)NC(=O)[C@@H]2CCCN2C(=O)[C@H](C)NC1=O [Design D9.9, PRO DVAL *LEU *DPHE *DPHE DPRO *LEU DILE ALA] (cyclo(AP[dV][NMeL][dNMeF][dNMeF][dP][NMeL][dI])) | 7.88E-07 | 2.31E-07 | 0.575 ×10⁻⁶ cm/s
20 | CC[C@H](C)[C@@H]1NC(=O)[C@@H](CC(C)C)N(C)C(=O)[C@H](CC(C)C)N(C)C(=O)[C@@H](C)N(C)C(=O)[C@@H](Cc2ccccc2)NC(=O)[C@H](C(C)C)NC(=O)[C@@H](C)NC(=O)[C@@H]2CCCN2C(=O)[C@H]2CCCN2C1=O [Design D9.10, VAL DPHE *DALA *LEU *DLEU ILE DPRO PRO DALA] (cyclo([dA]V[dF][dNMeA][NMeL][dNMeL]I[dP]P)) | 1.20E-06 | 6.09E-07 | 0.826 ×10⁻⁶ cm/s
21 | CC[C@H](C)[C@@H]1NC(=O)[C@@H](C)N(C)C(=O)[C@@H](C)N(C)C(=O)[C@@H]2CCCN2C(=O)[C@H](CC(C)C)NC(=O)[C@H](CC(C)C)NC(=O)[C@@H](CC(C)C)NC(=O)[C@@H]2CCCN2C(=O)[C@H]2CCCN2C1=O [Design D9.11, PRO DLEU LEU LEU PRO *DALA *DALA ILE DPRO] (cyclo([dL]LLP[dNMeA][dNMeA]I[dP]P)) | 2.61E-07 | 2.10E-07 | 0.223 ×10⁻⁶ cm/s
22 | CC[C@@H](C)[C@H]1NC(=O)[C@H]2CCCN2C(=O)[C@H]([C@@H](C)CC)NC(=O)[C@H](CC(C)C)N(C)C(=O)[C@H]2CCCN2C(=O)[C@@H]2CCCN2C(=O)[C@H](Cc2ccccc2)N(C)C(=O)[C@H](Cc2ccccc2)NC(=O)[C@H]([C@@H](C)CC)NC1=O [Design D9.13, DPRO DILE ILE PHE *PHE PRO DPRO *LEU ILE] (cyclo(F[NMeF]P[dP][NMeL]I[dP][dI]I)) | 3.63E-06 | 3.09E-06 | 3.37 ×10⁻⁶ cm/s
